# Source: article PMC9189214 (Poultry Science, 2022)
# How the values were obtained:
# [1] = Cell viability used to select the allicin concentration; type: cell-based; settings: dog, MDCK-chAbcb1 or MDCK-chAbcg2 cells
# [2] = Pharmacokinetic analyses of sulfadiazine and florfenicol in broilers; type: in vivo; settings: florfenicol 20 mg/kg oral, 4-wk broilers
# chicken BCRP = experiment: Bidirectional transport experiment in MDCK-chAbcg2 cells; type: in vitro ADME; settings: net efflux ratio (NER), florfenicol 20 μM, without allicin
Structure (SMILES),viability at 5 μM [1],CLz ([2]; Allicin (32 mg/kg) for 4 wk),Vz ([2]; Allicin (32 mg/kg) for 4 wk),CLz ([2]; Control (no allicin)),Vz ([2]; Control (no allicin)),efflux ratio at 20 μM (chicken BCRP)
"C=CCS[S+]([O-])CC=C (stereo not drawn) [allicin, Allicin]",> 90%,–,–,–,–,–
CS(=O)(=O)c1ccc([C@@H](O)[C@@H](CF)NC(=O)C(Cl)Cl)cc1 [florfenicol],–,18.8 ± 8 mL/min/kg,7.61 ± 2.89 L/kg,25.2 ± 8.17 mL/min/kg,8.57 ± 3.90 L/kg,> 2
